Data on four compounds can be found in ChEMBL document CHEMBL1772958, “In vivo activity of benzoyl ester clerodane diterpenoid derivatives from Dodonaea polyandra” (2011).

Activity calls are given as the source filed them. The rule behind the calls is not given here.

Assay [1] deals with Mus musculus. The assay can be described thus: Antiinflammatory activity against TPA-induced ear edema in mouse assessed as ear thickness at 0.91 umol/ear, sc administered 30 mins after TPA challenge measured after 2 to 48 hrs. The assay is classed as functional.
In assay [2] the test system is Mus musculus. Description: Antiinflammatory activity against TPA-induced ear edema in mouse assessed as ear thickness at 0.023 to 0.91 umol/ear, sc administered 30 mins after TPA challenge measured after 2 to 48 hrs. It counts as functional, organism-based.
Assay [3] has as its system Mus musculus. Description: Antiinflammatory activity against TPA-induced ear edema in mouse assessed as ear thickness at 1.83 umol/ear, sc administered 30 mins after TPA challenge measured after 2 to 48 hrs. The assay is classed as functional, organism-based.
Assay [4] deals with Mus musculus. The assay can be described thus: Antiinflammatory activity against TPA-induced ear edema in mouse assessed as ear thickness at 0.90 umol/ear, sc administered 30 mins after TPA challenge measured after 2 to 48 hrs. The assay is classed as functional, organism-based.
In assay [5] the test system is Mus musculus. The assay can be described thus: Antiinflammatory activity against TPA-induced ear edema in mouse assessed as ear thickness at 0.22 umol/ear, topically administered 30 mins after TPA challenge measured after 8 hrs.
Assay [6] concerns Mus musculus. The assay can be described thus: Antiinflammatory activity against TPA-induced ear edema in mouse assessed as ear thickness, sc administered 30 mins after TPA challenge measured after 2 to 48 hrs. It counts as functional, organism-based.
Assay [7] deals with Mus musculus. The assay can be described thus: Antiinflammatory activity against TPA-induced ear edema in mouse assessed as ear thickness at 0.088 to 1.77 umol/ear, sc administered 30 mins after TPA challenge measured after 2 to 48 hrs. It counts as functional, organism-based.

With `C[C@@H]1CC[C@]2(C)C(C(=O)O)=C[C@H](OC(=O)c3ccccc3)C[C@@H]2[C@]1(C)CCc1ccoc1` (relative stereo), in assay [1], the “inhibition (INH)” value stood at 76.4%. As for `C[C@@]1(CCc2ccoc2)[C@H](COC(=O)c2ccccc2)CC[C@]2(C)C(C(=O)O)=CCC[C@H]12` (relative stereo), in assay [2], the outcome was inactive. For the same compound, the result in assay [3] was Active. Turning to `CCC(=O)OCC(=O)[C@@]1(OC(=O)CC)[C@@H](C)C[C@H]2[C@@H]3CCC4=CC(=O)C=C[C@]4(C)[C@@]3(F)[C@@H](O)C[C@@]21C`, the inhibition result in assay [4] is “Active”.

Take `C[C@@]1(CCc2ccoc2)[C@H](COC(=O)c2ccccc2)CC[C@]2(C)C(C(=O)O)=C[C@H](O)C[C@H]12` (relative stereo): the “inhibition (INH)” value in assay [5] was 70.2%. Further, the outcome in assay [6] and in assay [7] was Active.
